The results in this text go back to the NIST ThermoML archive (doi:10.1021/je1010054).

Numbers after ± are expanded uncertainties.

The conditions of this data set: Crystal; visual observation.

Regarding `O=C1C=CC(=O)N1c1cc(F)c(Br)c(F)c1` [1-(4-bromo-3,5-difluorophenyl)-1H-pyrrole-2,5-dione], the Normal melting temperature worked out at 197.50 ± 0.53 °C.
